Source: ChEMBL document CHEMBL1129115, “The role of the C-4 side chain of kainate and dihydrokainate in EAA receptor and transporter selectivity” (Bioorg Med Chem Lett, 1996)

How the values were obtained:
Rattus norvegicus [1] = organism: Rattus norvegicus; assay: Compound was tested for the inhibition of [3H]D-aspartate radioligand uptake into Synaptosomes in synaptic plasma membrane prepared from rat forebrain; format: functional
Glutamate NMDA receptor [2] = assay: Compound was tested for the inhibition of [3H]L-Glutamate radioligand binding to NMDA receptor in synaptic plasma membrane prepared from rat forebrain; very weak inhibition; format: cell membranes, Brain/Plasma
[3] = biological target: Glutamate receptor ionotropic, kainate; assay: Compound was tested for the inhibition of [3H]kainate radioligand binding to Ionotropic glutamate receptor kainate in synaptic plasma membrane prepared from rat forebrain; format: cell membranes, Brain/Plasma
[4] = biological target: T1, Glutamate receptor ionotropic, AMPA (Rattus norvegicus, UniProt P19490+P19491+P19492+P19493); assay: Compound was tested for the inhibition of [3H]AMPA radioligand binding to Ionotropic glutamate receptor AMPA in synaptic plasma membrane prepared from rat forebrain; very weak inhibition; format: cell membranes, Brain/Plasma
Glutamate NMDA receptor [5] = assay: Compound was tested for the inhibition of [3H]L-Glutamate radioligand binding to NMDA receptor in synaptic plasma membrane prepared from rat forebrain; format: cell membranes, Brain/Plasma
Rattus norvegicus [6] = organism: Rattus norvegicus; assay: Compound was tested for the inhibition of [3H]D-aspartate radioligand uptake into Synaptosomes in synaptic plasma membrane prepared from rat forebrain; very weak inhibition; format: functional, Brain/Plasma
[7] = biological target: T1, Glutamate receptor ionotropic, AMPA; assay: Compound was tested for the inhibition of [3H]AMPA radioligand binding to Ionotropic glutamate receptor AMPA in synaptic plasma membrane prepared from rat forebrain; format: cell membranes, Brain/Plasma

Row | SMILES | Ki (Rattus norvegicus [1]) | Ki (Glutamate NMDA receptor [2]) | Ki [3] | Ki [4] | Ki (Glutamate NMDA receptor [5]) | Ki (Rattus norvegicus [6]) | Ki [7]
1 | CC(C)[C@H]1CN[C@H](C(=O)O)[C@H]1CC(=O)O [DIHYDROKAINATE] | 30 µM | > 300 µM | 16 µM | > 500 µM |  |  | 
2 | O=C(O)C[C@H]1CCN[C@@H]1C(=O)O [TRANS-CPPA] |  |  | 1.6 µM |  | 0.5 µM | > 250 µM | 106 µM
